Reference: ChEMBL document CHEMBL5625191, “A review of progress in o-aminobenzamide-based HDAC inhibitors with dual targeting capabilities for cancer therapy” (Eur J Med Chem, 2023)
Values belong to the molecule of their own block, whether it stands above or below them.

How the values were obtained:
[1] = biological target: T1, Histone deacetylase 2 (Homo sapiens, UniProt Q92769); assay: Inhibition of HDAC2 (unknown origin)
[2] = biological target: T2, Histone deacetylase 1 (Homo sapiens, UniProt Q13547); assay: Inhibition of HDAC1 (unknown origin)
T2 sequence (Q13547 whole entry): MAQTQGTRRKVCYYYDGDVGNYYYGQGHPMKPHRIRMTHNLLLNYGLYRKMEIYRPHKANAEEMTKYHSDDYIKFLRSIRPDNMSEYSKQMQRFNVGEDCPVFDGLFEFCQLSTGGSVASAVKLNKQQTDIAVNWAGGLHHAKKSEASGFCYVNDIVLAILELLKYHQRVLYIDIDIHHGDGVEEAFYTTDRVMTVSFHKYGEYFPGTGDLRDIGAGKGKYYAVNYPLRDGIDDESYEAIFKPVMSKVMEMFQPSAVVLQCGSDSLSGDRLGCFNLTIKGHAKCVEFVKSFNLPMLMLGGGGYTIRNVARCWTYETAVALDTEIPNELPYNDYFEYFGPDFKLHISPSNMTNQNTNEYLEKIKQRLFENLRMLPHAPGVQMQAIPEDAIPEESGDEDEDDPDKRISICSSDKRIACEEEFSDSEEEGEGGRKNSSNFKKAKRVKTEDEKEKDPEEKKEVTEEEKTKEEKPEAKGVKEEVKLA

[3] = test system: HCT-116; assay: Antiproliferative activity against human HCT-116 cells assessed as inhibition of cell growth; assay type: functional, cell-based
[4] = biological target: Macrophage migration inhibitory factor (Homo sapiens, UniProt P14174); assay: Inhibition of MIF (unknown origin) tautomerase activity incubated for 10 mins by microplate reader analysis
Macrophage migration inhibitory factor, sequence (P14174 whole entry, the tested form may be a part): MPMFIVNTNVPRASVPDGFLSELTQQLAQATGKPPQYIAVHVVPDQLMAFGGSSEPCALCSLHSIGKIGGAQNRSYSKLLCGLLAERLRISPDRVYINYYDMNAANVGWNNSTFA

[5] = biological target: T2, Histone deacetylase 1; assay: Inhibition of full length C-terminal his6-tagged human recombinant HDAC1 (1 to 482 residues) expressed in Sf9 cells using fluorogenic Boc-Lys(Ac)-AMC as substrate incubated for 90 mins by Synergy H1 plate reader analysis
[6] = biological target: T1, Histone deacetylase 2; assay: Inhibition of full length C-terminal FLAG-tagged human recombinant HDAC2 (1 to 488 residues) expressed in Sf9 cells using fluorogenic Boc-Lys(Ac)-AMC as substrate incubated for 90 mins by Synergy H1 plate reader analysis
[7] = biological target: T3, Histone deacetylase 3 (Homo sapiens, UniProt O15379); assay: Inhibition of C-terminl his-tagged human recombinant HDAC3 (1 to 428 residues) expressed in Sf9 cells using fluorogenic Boc-Lys(Ac)-AMC as substrate incubated for 90 mins by Synergy H1 plate reader analysis
T3 sequence (O15379 whole entry, the tested form may be a part): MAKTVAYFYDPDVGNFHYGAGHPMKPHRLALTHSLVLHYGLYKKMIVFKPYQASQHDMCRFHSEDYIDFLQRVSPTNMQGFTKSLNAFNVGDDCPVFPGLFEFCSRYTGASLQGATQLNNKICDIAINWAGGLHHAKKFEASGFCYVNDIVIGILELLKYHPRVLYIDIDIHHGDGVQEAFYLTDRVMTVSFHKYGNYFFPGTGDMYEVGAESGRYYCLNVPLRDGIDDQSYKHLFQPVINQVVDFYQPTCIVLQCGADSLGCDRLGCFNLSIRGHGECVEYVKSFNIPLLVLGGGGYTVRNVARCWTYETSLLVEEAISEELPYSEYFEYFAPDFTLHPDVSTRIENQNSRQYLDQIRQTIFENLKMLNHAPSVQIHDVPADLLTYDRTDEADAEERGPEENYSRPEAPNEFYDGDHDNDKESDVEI

[8] = test system: MCF7; assay: Antiproliferative activity against human MCF7 cells assessed as inhibition of cell growth incubated for 48 hrs by CCK-8 assay; assay type: functional, cell-based; conditions: MCF7, 48 h
[9] = test system: HCT-116; assay: Antitumor activity against human HCT-116 cells xenografted in BALB/c mouse assessed tumor growth inhibition at 150 mg/kg, po bid measured for every 3 days; assay type: functional; conditions: HCT-116, 72 h, time 3 day, read-out: TGI
[10] = biological target: Histone deacetylase; assay: Inhibition of HDAC (unknown origin); assay type: protein assay, Homo sapiens
[11] = test system: K562; assay: Antiproliferative activity against human K562 cells assessed as inhibition of cell growth by MTT assay; assay type: functional, cell-based
[12] = biological target: Histone deacetylase; assay: Inhibition of HDAC in human HeLa nuclear extract using Boc-Lys(Ac)-AMC or Boc-Lys(Tfa)-AMC as substrate preincubated for 5 mins followed by substrate addition and measured after 30 mins by fluorescence assay; assay type: cell-free
[13] = biological target: Ephrin type-A receptor 2 (Homo sapiens, UniProt P29317); assay: Inhibition of EphA2 (unknown origin) incubated for 30 mins by TR-FRET assay
Ephrin type-A receptor 2, sequence (P29317 whole entry): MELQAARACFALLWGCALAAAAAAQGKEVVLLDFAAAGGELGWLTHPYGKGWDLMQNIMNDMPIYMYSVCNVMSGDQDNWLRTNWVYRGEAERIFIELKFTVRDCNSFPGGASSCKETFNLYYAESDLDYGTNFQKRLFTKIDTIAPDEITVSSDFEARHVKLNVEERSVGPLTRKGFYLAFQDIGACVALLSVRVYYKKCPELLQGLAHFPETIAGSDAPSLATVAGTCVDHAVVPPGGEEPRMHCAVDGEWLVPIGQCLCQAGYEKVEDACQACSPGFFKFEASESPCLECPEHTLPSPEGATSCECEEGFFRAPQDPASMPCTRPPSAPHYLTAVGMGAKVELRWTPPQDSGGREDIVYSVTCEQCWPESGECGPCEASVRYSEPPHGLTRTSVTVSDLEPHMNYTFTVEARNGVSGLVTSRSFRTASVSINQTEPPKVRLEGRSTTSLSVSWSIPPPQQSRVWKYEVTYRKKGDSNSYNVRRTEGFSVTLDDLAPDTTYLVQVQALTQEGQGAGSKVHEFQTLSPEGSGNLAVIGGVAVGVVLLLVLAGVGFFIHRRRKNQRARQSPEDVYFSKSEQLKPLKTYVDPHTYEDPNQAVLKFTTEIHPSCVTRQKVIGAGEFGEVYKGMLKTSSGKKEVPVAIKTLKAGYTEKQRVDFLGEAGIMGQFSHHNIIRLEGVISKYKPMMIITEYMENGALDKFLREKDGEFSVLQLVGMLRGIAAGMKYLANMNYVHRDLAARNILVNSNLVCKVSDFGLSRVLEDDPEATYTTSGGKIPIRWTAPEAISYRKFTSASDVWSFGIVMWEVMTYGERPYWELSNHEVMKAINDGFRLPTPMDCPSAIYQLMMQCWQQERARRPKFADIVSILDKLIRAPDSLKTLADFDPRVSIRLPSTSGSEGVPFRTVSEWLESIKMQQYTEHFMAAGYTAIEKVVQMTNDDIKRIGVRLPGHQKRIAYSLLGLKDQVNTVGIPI

[14] = test system: K562; assay: Antiproliferative activity against human K562 cells assessed as inhibition of cell growth incubated for 48 hrs by MTT assay; assay type: functional, cell-based; conditions: K562, 48 h
[15] = biological target: Protein deacetylase HDAC6 (Homo sapiens, UniProt Q9UBN7); assay: Inhibition of HDAC6 (unknown origin)
Protein deacetylase HDAC6, sequence (Q9UBN7 whole entry): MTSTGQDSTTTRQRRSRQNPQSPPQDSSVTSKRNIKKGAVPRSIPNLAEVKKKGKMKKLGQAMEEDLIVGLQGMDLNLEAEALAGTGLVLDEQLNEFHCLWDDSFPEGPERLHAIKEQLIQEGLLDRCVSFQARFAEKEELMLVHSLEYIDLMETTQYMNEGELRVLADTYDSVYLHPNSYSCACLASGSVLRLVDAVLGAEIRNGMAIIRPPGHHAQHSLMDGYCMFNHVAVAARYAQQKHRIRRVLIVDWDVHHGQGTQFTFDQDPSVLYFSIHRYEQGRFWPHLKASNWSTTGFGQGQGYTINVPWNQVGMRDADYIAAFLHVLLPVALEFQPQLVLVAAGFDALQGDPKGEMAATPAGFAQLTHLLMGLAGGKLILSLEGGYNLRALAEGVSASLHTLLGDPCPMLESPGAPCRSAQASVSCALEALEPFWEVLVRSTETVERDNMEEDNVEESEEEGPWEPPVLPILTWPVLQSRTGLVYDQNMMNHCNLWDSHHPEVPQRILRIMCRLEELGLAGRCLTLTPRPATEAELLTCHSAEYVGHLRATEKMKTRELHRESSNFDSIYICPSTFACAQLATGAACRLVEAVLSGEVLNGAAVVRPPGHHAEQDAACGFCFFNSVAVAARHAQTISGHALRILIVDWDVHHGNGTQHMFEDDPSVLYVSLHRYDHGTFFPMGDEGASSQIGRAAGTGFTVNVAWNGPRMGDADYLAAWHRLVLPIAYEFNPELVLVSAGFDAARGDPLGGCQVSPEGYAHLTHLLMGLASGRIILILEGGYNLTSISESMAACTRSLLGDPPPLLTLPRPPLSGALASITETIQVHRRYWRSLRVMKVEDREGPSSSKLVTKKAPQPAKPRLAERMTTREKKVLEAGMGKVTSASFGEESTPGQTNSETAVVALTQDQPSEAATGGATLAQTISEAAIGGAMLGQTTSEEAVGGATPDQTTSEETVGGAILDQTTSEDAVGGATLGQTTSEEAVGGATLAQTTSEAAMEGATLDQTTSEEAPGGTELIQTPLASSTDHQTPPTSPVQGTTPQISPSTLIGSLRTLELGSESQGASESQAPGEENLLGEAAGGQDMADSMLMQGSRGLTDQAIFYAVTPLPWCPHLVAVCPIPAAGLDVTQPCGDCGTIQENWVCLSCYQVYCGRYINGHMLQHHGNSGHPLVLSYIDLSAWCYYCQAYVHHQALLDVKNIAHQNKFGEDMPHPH

[16] = test system: U-937; assay: Cytotoxicity against human U-937 cells assessed as inhibition of cell growth; assay type: functional, cell-based
[17] = test system: MCF7; assay: Cytotoxicity against human MCF7 cells assessed as inhibition of cell growth; assay type: functional, cell-based
[18] = test system: MGC-803; assay: Cytotoxicity against human MGC-803 cells assessed as inhibition of cell growth; assay type: functional, cell-based
[19] = test system: HeLa; assay: Cytotoxicity against human HeLa cells assessed as inhibition of cell growth; assay type: functional, cell-based
[20] = test system: HepG2; assay: Cytotoxicity against human HepG2 cells assessed as inhibition of cell growth; assay type: functional, cell-based
[21] = biological target: Bromodomain-containing protein 4 (Homo sapiens, UniProt O60885); assay: Inhibition of BRD4 BD1 (unknown origin)
[22] = test system: HCT-116; assay: Antiproliferative activity against human HCT-116 cells assessed as inhibition of cell growth incubated for 48 hrs by MTT assay; assay type: functional, cell-based; conditions: HCT-116, 48 h
[23] = biological target: T2, Histone deacetylase 1; assay: Inhibition of HDAC1 in human HeLa nuclear extract using Boc-Lys(Ac)-AMC or Boc-Lys(Tfa)-AMC as substrate preincubated for 5 mins followed by substrate addition and measured after 30 mins by fluorescence assay; assay type: cell-free
[24] = biological target: T1, Histone deacetylase 2; assay: Inhibition of HDAC2 in human HeLa nuclear extract using Boc-Lys(Ac)-AMC or Boc-Lys(Tfa)-AMC as substrate preincubated for 5 mins followed by substrate addition and measured after 30 mins by fluorescence assay; assay type: cell-free
[25] = biological target: T3, Histone deacetylase 3; assay: Inhibition of HDAC3 in human HeLa nuclear extract using Boc-Lys(Ac)-AMC or Boc-Lys(Tfa)-AMC as substrate preincubated for 5 mins followed by substrate addition and measured after 30 mins by fluorescence assay; assay type: cell-free
[26] = test system: HeLa; assay: Antiproliferative activity against human HeLa cells assessed as inhibition of cell growth incubated for 48 hrs by MTT assay; assay type: functional, cell-based
[27] = test system: PC-3; assay: Antiproliferative activity against human PC-3 cells assessed as inhibition of cell growth incubated for 48 hrs by MTT assay; assay type: functional, cell-based; conditions: PC-3, 48 h
[28] = test system: HEL; assay: Antiproliferative activity against human HEL cells assessed as inhibition of cell growth incubated for 48 hrs by MTT assay; assay type: functional, cell-based
[29] = test system: MOLT-4; assay: Antiproliferative activity against human MOLT-4 cells assessed as inhibition of cell growth incubated for 48 hrs by MTT assay; assay type: functional, cell-based; conditions: MOLT-4, 48 h
[30] = test system: Jurkat; assay: Antiproliferative activity against human Jurkat cells assessed as inhibition of cell growth incubated for 48 hrs by MTT assay; assay type: functional, cell-based
[31] = test system: A549; assay: Antiproliferative activity against human A549 cells assessed as inhibition of cell growth incubated for 48 hrs by MTT assay; assay type: functional, cell-based; conditions: A549, 48 h
[32] = test system: RPMI-8226; assay: Antiproliferative activity against human RPMI-8226 cells assessed as inhibition of cell growth incubated for 72 hrs by XTT assay; assay type: functional, cell-based; conditions: RPMI-8226, 72 h
[33] = biological target: Histone deacetylase (Homo sapiens) (UniProt Q13547+O15379+Q9UBN7+Q92769+Q9UQL6+Q8WUI4+Q9BY41+Q96DB2+P56524+Q9UKV0+Q969S8); assay: Inhibition of HDAC in human RPMI-8226 cells at 10 uM incubated for 8 hrs relative to control; assay type: cell-based
[34] = Antiproliferative activity against human Bortezomib-resistant RPMI-8226 cells assessed as inhibition of cell growth incubated for 72 hrs by XTT assay; assay type: functional, cell-based; conditions: Bortezomib-resistant RPMI-8226, 72 h

T1 sequence (Q92769 whole entry): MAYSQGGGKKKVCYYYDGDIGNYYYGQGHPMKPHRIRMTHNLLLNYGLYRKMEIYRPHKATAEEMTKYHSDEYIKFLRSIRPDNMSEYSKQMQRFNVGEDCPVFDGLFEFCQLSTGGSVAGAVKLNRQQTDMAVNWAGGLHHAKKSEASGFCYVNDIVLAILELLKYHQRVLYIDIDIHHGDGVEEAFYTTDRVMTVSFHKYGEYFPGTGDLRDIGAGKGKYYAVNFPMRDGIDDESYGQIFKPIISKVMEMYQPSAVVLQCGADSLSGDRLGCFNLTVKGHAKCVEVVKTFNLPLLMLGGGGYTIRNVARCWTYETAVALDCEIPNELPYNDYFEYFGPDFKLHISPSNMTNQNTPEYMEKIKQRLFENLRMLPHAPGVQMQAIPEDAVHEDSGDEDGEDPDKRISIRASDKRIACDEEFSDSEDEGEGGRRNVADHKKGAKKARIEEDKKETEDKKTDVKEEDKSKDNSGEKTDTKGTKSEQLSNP

IC50 [4]: 180 nM
IC50 [5]: 200 nM
IC50 [6]: 1100 nM
IC50 [7]: 600 nM
Compound: Nc1ccccc1NC(=O)c1ccc(NC(=O)Cc2ccc(N3Cc4ccc(O)cc4OC3=O)cc2)cc1

IC50 [8]: 18 nM
Compound: CN1c2ccccc2C(=O)N2[C@H](C(=O)Nc3ccc(C(=O)Nc4ccccc4N)cc3)Cc3c([nH]c4ccccc34)[C@@H]12
inhibition in vivo at 150 mg/kg [9]: 75.2%

IC50 [22]: 770 nM
IC50 [23]: 470 nM
IC50 [24]: 1140 nM
IC50 [25]: 560 nM
IC50 [26]: 1500 nM
IC50 [27]: 2500 nM
IC50 [29]: 540 nM
IC50 [30]: 770 nM
IC50 [31]: 980 nM
Compound: Nc1ccccc1NC(=O)CCCCCOc1no[n+]([O-])c1S(=O)(=O)c1ccccc1
IC50 [28]: 410 nM

IC50 [32]: 37.1 nM
inhibition [33]: 33%
Compound: CC(C)C[C@@H](NC(=O)[C@H](Cc1ccccc1)NC(=O)c1ccc(C(=O)Nc2ccccc2N)cc1)B1OC2CC3CC(C3(C)C)[C@@]2(C)O1 (some centres undefined)
IC50 [34]: 112 nM

The remaining lines, values behind:

Compound: CN1c2ccc(NCc3ccc(C(=O)Nc4ccccc4N)cc3)cc2C(=O)N2CCc3c([nH]c4ccccc34)[C@H]21
IC50 [1]: 6250 nM
IC50 [2]: 1510 nM
IC50 [3]: 2760 nM

Compound: CCN1CCN(c2cc(Nc3ncc(C(=O)Nc4ccc(F)cc4N)s3)ncn2)CC1
IC50 [10]: 810 nM
IC50 [11]: 2620 nM

Compound: Nc1ccccc1NC(=O)Nc1ccc(NC(=O)c2cccnc2)cc1
IC50 [12]: 940 nM
IC50 [13]: 680 nM
IC50 [14]: 8360 nM

Compound: COc1cc2c(cc1OCc1ccc(C(=O)Nc3ccccc3N)cc1)CC[C@@H]1[C@H]3CC[C@@H](O)[C@]3(C)CC[C@@H]21
IC50 [1]: 60 nM
IC50 [15]: 120 nM
IC50 [16]: 371 nM
IC50 [17]: 370 nM
IC50 [18]: 370 nM
IC50 [19]: 370 nM
IC50 [20]: 370 nM

Compound: Cc1sc2c(c1C)C(c1ccc(Cl)cc1)=N[C@@H](CC(=O)Nc1ccc(C(=O)Nc3ccccc3N)cc1)c1nnc(C)n1-2
IC50 [21]: 729 nM

Compound: CC(C)C[C@@H](NC(=O)[C@H](Cc1ccccc1)NC(=O)c1cnc(C(=O)Nc2ccccc2N)cn1)B1OC2CC3CC(C3(C)C)[C@@]2(C)O1 (some centres undefined)
IC50 [10]: 23.6 nM
IC50 [32]: 9.5 nM
inhibition [33]: 33%
IC50 [34]: 158 nM
